Experimental data: patent US20240368158A1, “KINASE MODULATORS, COMPOSITIONS COMPRISING THE KINASE MODULATOR, AND METHODS OF USING THE SAME” (BIOFRONT LTD, priority 2021, published 2024)

Tests used:
[1] = system: HPK1 p-SLP-76 in Jurkat cells; test: HPK1 p-SLP-76 inhibition assay in Jurkat cells (HTRF); type: cell-based; conditions: Homo sapiens, 4 h compound, anti-CD3 stimulation 20 min
HPK1 = target: T1, HPK1 (Homo sapiens, UniProt Q92918); test: HPK1 enzyme inhibition assay (ADP-Glo); type: biochemical; conditions: MBP substrate, ATP
T1 construct: purchased Signal Chem M23-11G-10
T1 sequence (Q92918 1-346 limits assumed): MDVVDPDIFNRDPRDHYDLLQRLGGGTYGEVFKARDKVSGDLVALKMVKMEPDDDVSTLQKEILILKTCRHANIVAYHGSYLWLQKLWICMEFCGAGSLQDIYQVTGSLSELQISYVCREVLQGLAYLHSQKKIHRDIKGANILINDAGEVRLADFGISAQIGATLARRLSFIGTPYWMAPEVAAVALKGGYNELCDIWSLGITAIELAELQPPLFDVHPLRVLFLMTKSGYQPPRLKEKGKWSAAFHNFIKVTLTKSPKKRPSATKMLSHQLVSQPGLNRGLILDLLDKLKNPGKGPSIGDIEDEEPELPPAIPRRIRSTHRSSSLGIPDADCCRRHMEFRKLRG

FLT3-ITD = target: T2, FLT3-ITD (Homo sapiens, UniProt P36888); test: FLT3-ITD enzyme inhibition assay (HTRF KinEASE-TK); type: biochemical; conditions: FLT3-ITD protein, ATP 15 μM
T2 construct: The FLT3-ITD protein was purchased from Invitrogen (PV6190)
T2 sequence (P36888 1-993): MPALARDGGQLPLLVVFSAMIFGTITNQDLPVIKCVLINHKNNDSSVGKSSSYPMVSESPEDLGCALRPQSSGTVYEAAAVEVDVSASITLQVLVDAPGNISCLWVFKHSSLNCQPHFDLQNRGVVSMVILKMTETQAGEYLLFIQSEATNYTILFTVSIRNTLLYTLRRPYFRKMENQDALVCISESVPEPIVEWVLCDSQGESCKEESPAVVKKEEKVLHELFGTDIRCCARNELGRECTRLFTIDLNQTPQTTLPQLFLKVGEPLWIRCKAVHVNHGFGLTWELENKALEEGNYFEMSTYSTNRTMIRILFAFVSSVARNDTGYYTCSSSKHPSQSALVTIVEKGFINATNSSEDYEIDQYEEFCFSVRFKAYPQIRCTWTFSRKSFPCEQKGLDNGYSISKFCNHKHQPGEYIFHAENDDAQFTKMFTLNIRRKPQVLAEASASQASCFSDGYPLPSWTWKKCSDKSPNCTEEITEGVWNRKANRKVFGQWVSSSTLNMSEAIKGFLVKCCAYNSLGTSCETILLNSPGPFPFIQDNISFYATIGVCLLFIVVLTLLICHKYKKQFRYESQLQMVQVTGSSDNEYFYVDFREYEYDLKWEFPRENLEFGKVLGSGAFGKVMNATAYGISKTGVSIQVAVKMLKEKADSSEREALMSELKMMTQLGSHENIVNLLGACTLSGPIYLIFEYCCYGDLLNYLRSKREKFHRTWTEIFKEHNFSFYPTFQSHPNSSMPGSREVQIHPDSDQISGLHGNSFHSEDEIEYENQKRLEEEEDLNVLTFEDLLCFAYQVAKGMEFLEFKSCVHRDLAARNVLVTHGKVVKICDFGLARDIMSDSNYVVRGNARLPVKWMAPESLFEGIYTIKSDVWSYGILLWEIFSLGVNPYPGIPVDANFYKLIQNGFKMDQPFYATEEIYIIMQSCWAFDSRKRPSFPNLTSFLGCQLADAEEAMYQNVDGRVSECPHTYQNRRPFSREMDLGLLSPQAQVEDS
Protocol: The compound was dissolved in 100% DMSO at the concentration of 10 mM. The FLT3-ITD protein was purchased from Invitrogen (PV6190). 5 μL per well of 2×FLT3-ITD protein was added to assay plate containing the test compound, centrifuged at 1000 rpm for 1 minute, and then incubated at 25° C. for 15 minutes. HTRF KinEASE-TK kit was purchased from Cisbio (62TK0PEC) and ATP was purchased from Thermo Fisher Scientific (R0441). TK-Substrate-biotin and ATP were added 5 μL per well mixture of 2×TK-Substrate-biotin (final conc. is […]) and ATP (final conc. is 15 μM), centrifuged at 1000 rpm for 1 minute, then incubated at 25° C. for 60 minutes. Then added 10 μL of detection buffer (0.25×TK-antibody Eu3+-cryptate, 0.125 μM streptavidine-XL 665) to the assay plate and centrifuged at 1000 rpm for 1 minute then incubated at 25° C. for 60 minutes and 4° C. incubated for overnight, the product was determined. Based on the results, the IC50 value of the compound was calculated.

Row | IC50 [1] [nM] | IC50 (HPK1) [nM] | IC50 (FLT3-ITD) [nM] | SMILES
1 | 3000 to 10000 | 10 to 100 | 10 to 100 | O=C1CNCCN1c1cccc(-c2cnc3[nH]cc(C#Cc4ccccn4)c3c2Cl)c1 [Example 7, 1-(3-(4-chloro-3-(pyridin-2-ylethynyl)-1H-pyrrolo[2,3-b]pyridin-5-yl)phenyl) piperazin-2-one]
2 | > 10000 | 100 to 1000 | 10 to 100 | CCc1c[nH]c2ncc(-c3nc(N4CCNCC4=O)sc3C)c(Cl)c12 [Example 20, 1-(4-(4-chloro-3-ethyl-1H-pyrrolo[2,3-b]pyridin-5-yl)-5-methylthiazol-2-yl)piperazin-2-one]
3 | ≤ 300 | ≤ 10 | ≤ 10 | CCc1c[nH]c2ncc(-c3cccc(N4CCN(C(=O)COC)CC4=O)c3)c(Cl)c12 [Example 25, 1-(3-(4-chloro-3-ethyl-1H-pyrrolo[2,3-b]pyridin-5-yl)phenyl)-4-(2-methoxyacetyl)piperazin-2-one]
4 | 3000 to 10000 | ≤ 10 | 10 to 100 | CCc1c[nH]c2ncc(-c3cccc(N4CCN(C(=O)[C@@H](N)Cc5ccccc5)CC4=O)c3)c(Cl)c12 [Example 43, 4-(L-phenylalanyl)-1-(3-(4-chloro-3-ethyl-1H-pyrrolo[2,3-b]pyridin-5-yl)phenyl)piperazin-2-one]
5 | 300 to 3000 | ≤ 10 | ≤ 10 | CCc1c[nH]c2ncc(-c3cccc(N4CCN(C(=O)CNC(=O)[C@@H](N)C(C)C)CC4=O)c3)c(Cl)c12 [Example 44, (S)-2-amino-N-(2-(4-(3-(4-chloro-3-ethyl-1H-pyrrolo[2,3-b]pyridin-5-yl)phenyl)-3-oxopiperazin-1-yl)-2-oxoethyl)-3-methylbutanamide]
6 | > 10000 | ≤ 10 | ≤ 10 | CCc1c[nH]c2ncc(-c3cccc(N4CCN(C(=O)COc5ccc(C[C@@H](N)C(=O)O)cc5)CC4=O)c3)c(Cl)c12 [Example 45, (R)-2-amino-3-(4-(2-(4-(3-(4-chloro-3-ethyl-1H-pyrrolo[2,3-b]pyridin-5-yl)phenyl)-3-oxopiperazin-1-yl)-2-oxoethoxy)phenyl)propanoic acid]
7 | > 10000 | ≤ 10 | ≤ 10 | CCc1c[nH]c2ncc(-c3cccc(N4CCN(C(=O)CCCO[C@@H]5O[C@H](CO)[C@@H](O)[C@H](O)[C@H]5O)CC4=O)c3)c(Cl)c12 [Example 48, 1-(3-(4-chloro-3-ethyl-1H-pyrrolo[2,3-b]pyridin-5-yl)phenyl)-4-(4-(((2R,3R,4S,5S,6R)-3,4,5-trihydroxy-6-(hydroxymethyl)tetrahydro-2H-pyran-2-yl)oxy)butanoyl)piperazin-2-one]
8 | 300 to 3000 | ≤ 10 | ≤ 10 | CCc1c[nH]c2ncc(-c3cccc(N4CCN(C(=O)COc5cccc(C6O[C@H](CO)[C@@H](O)[C@H](O)[C@H]6O)c5)CC4=O)c3)c(Cl)c12 (stereo partly drawn) [Example 50, 1-(3-(4-chloro-3-ethyl-1H-pyrrolo[2,3-b]pyridin-5-yl)phenyl)-4-(2-(3-((3R,4R,5S,6R)-3,4,5-trihydroxy-6-(hydroxymethyl)tetrahydro-2H-pyran-2-yl)phenoxy)acetyl)piperazin-2-one]
9 | 300 to 3000 | ≤ 10 | ≤ 10 | CS(=O)(=O)N1CCN(c2cccc(-c3cnc4[nH]cc(C5CC5)c4c3Cl)c2)C(=O)C1 [Example 53, 1-(3-(4-chloro-3-cyclopropyl-1H-pyrrolo[2,3-b]pyridin-5-yl)phenyl)-4-(methylsulfonyl)piperazin-2-one]
10 | 300 to 3000 | ≤ 10 | ≤ 10 | CN(C)CCCS(=O)(=O)N1CCN(c2cccc(-c3cnc4[nH]cc(CC(F)F)c4c3Cl)c2)C(=O)C1 [Example 60, 1-(3-(4-chloro-3-(2,2-difluoroethyl)-1H-pyrrolo[2,3-b]pyridin-5-yl)phenyl)-4-((3-(dimethylamino)propyl)sulfonyl)piperazin-2-one]
